B1: clone 19R: lambda gt 11 cDNA clone encoding Lol p Ib.2 (protein)
chain: MAVQKHTVALFLAVALVAGPAASYAADAGYAPATPATPAAPATAATPATPATPATPAAVPSGKATTEEQKLIEKINAGFKAAVAAAAVVPPADKYKTFVETFGTATNKAFVEGLASGYADQSKNQLTSKLDAALKLAYEAAQGATPEAKYDAYVATLTEALRVIAGTLEVHAVKPAAEEVKVGAIPAAEVQLIDKVDAAYRTAATAANAAPANDKFTVFENTFNNAIKVSLGAAYDSYKFIPTLVAAVKQAYAAKQATAPEVKYTVSETALKKAVTAMSEAEKEATPAAAATATPTPAAATATATPAAAYATATPAAATATATPAAATATPAAAGGYKV
B2: Lol p Ib.2: protein encoded by clone 19R (SEQ ID NO.: 4) (protein)
chain: B1 chain
B3: Lol p Ib.1: protein encoded by the 12R clone (SEQ ID NO.: 2) (protein)
chain: MAVQKYTVALFLAVALVAGPAASYAADAGYTPAAAATPATPAATPAAAGGKATTDEQKLLEDVNAGFKAAVAAAANAPPADKFKIFEAAFSESSKGLLATSAAKAPGLIPKLDTAYDVAYKAAEGATPEAKYDAFVTALTEALRVIAGALEVHAVKPATEEVPAAKIPTGELQIVDKIDAAFKIAATAANAAPTNDKFTVFESAFNKALNECTGGAYETYKFIPSLEAAVKQAYAATVAAAPEVKYAVFEAALTKAITAMTQAQKAGKPAAAAATGAATVATGAATAAAGAATAAAGGYKA

Tests used:
[1] = system: Mab FMC-A7 and rabbit polyclonal anti-Lol p Ib antiserum; assay: Peptide dot blot immunoassay: mouse/rabbit IgG; format: binding
Protocol: (§1) The peptides were dissolved in water to give a 1.6 mM stock solution. Insoluble peptides were dissolved by sonication (Branson Sonifier 450, USA) for 1 minute.
(§2) The peptides were immobilized onto nitrocellulose (NC) filter by using a modified method published elsewhere (Sithigonglu (1991) J. Immunol. Methods, 141:23-32). Two μl of the peptide stock solutions were spotted on the NC filter (Schleicher & Schuell, W. Germany) about 1 cm apart. After the strips were dried and baked at 80° C. for one hour, they were fixed by exposure, in a tightly sealed plastic box, to vapor from 0.2% glutaraldehyde in PBS at room temperature (18° C.) for one hour. After washing thoroughly with distilled water, the NC filters were blocked with Blotto (10% non-fat dry milk in PBS) for two hours and washed in 1×Tween-PBS (0.1% Tween-20 in PBS) and 2×PBS, five minutes each.
(§3) The peptides were then screened for human IgE and mouse/rabbit IgG epitopes with individual sera (diluted 1:4 in PBS with 0.5% BSA), MAbs FMC A7 (Smart et al. (1983) Int. Arch. Allergy Clin. Immunol. 72: 243) and polyclonal rabbit anti-Lol p Ib antibody. The rabbit anti-sera was a gift from Dr. Jenny Roland, Alfred Hospital, Melbourne, Australia.
(§4) The intensity of each dot blot was measured by densitometer (Pharmacia LKB UltraScan XL, Sweden). Densitometric values greater than two were considered as positive binding in comparison to the background. For every peptide, the sera and antibody values have been added (score/peptide) and divided by the number of positive sera to express the final value as an average (score/sera). Sera C1 and C2 were not grass allergic and were used as negative controls. C refers to crude ryegrass pollen extract (1 μg/dot) as positive control.

[2] = system: MAb 12.3; assay: Antibody screening of lambda-gt 11 cDNA clones: binding of MAb 12.3; set-up: key to Binding of MAb 12.3: ++: strongest binding; -: no binding; settings: for Binding of MAb 12.3: protein expressed by lambda-gt 11 clone in E. coli Y1090, plaque lift
Protocol: (§5) Poly (A+) mRNA isolated from mature rye grass pollen by the phenol method ([…] and Michaels, (1984) Plant Mol. Biol. Rep., 2:24-28) was used to construct a cDNA library in the vector lambda-gt 11. The library was then screened with antibody probes to detect sequences expressing Group I proteins. E. coli […] transfected with 3×10^4 recombinant phages were plated and incubated at 42° C. for 3 h. The plates were overlaid with a dry 132 mm nitrocellulose (NC) filter previously soaked in 10 mm IPTG and transferred to 37° C. After incubation for 3 h the filters were carefully peeled off and incubated in 20 ml per filter of MTBS (10% w/v non-fat milk powder, 50 mm Tris-HCI, pH 7.6, 150 mM Nacl) for 30 min. at room temperature. A second set of NC filters was placed on phage plates and after incubating for 3 h were treated as above. Both sets of NC filters were tested for binding of MAb 40.1 to plaques by the method described in Huynh et al. (1985) In: DNA Cloning, a practical approach, Glover, D. M. (ed.) Vol. 1, pp. 49-78, IRL Press, Oxford, England. The antibody positive plaques were picked, purified, then replated and tested for binding to probes. The positive clones were plaque-purified and tested for IgE binding using sera from grass pollen-allergic subjects. Eighteen clones were selected as encoding proteins recognized by both Lol p I-specific MAbs and IgE antibodies (Table 1). The largest of the cDNA clones, 1.2kb in size, that expressed rye-grass allergenic protein was initially selected for further characterization and sequencing, and designated clone lambda-12R (FIG. 1a).

[3] = system: MAb 40.1; assay: Antibody screening of lambda-gt 11 cDNA clones: binding of MAb 40.1; set-up: key: ++: strongest binding; -: no binding; settings: protein expressed by lambda-gt 11 clone in E. coli Y1090, plaque lift
Protocol: as §5

[4] = system: IgE from sera of allergic indivs.; assay: Screening of lambda-gt 11 cDNA clones for IgE binding; set-up: species or system human; key: ++: strongest binding; -: no binding; settings: protein expressed by lambda-gt 11 clone, plaque lift
Protocol: as §5

[5] = Two dimensional gel electrophoresis of ryegrass pollen proteins (pI); format: physicochemical, Lolium perenne; settings: allergen spot on two dimensional gel
Protocol: (§6) Two dimensional (2D)-PAGE was performed in a mini-Protean II 2-D cell (Biorad, Richmond, Calif.) according to the manufacturer instructions. The proteins were diluted 1:1 in 4% CHAPS. […] The first dimension gel was run for 3.5 hours. The econd dimension gel was run for 45 minutes. Proteins on 2D-PAGE gels were silver stained to reveal the protein profile.

[6] = system: IgE affinity purified from recombinant allergens and IgE from whole serum of allergic individuals; assay: Two-dimensional Western blot: IgE binding to allergens; set-up: species or system human; settings: IgE preparations that bind: AP12R, AP13R, AP19R = affinity purified from recombinant Lol p Ib.1 fragment IH, Lol p Ia clone 13R, Lol p Ib.2; TIgE = whole serum
From the text: Serum used in the experiment to identify allergen regions of Lol p Ia and Lol p Ib was collected by Dr. R. Phomley at the Epworth Hospital (Richmond, Australia) from patients with a history of allergy to ryegrass pollen and a positive skin test to ryegrass pollen extract. IgE was affinity-purified from recombinant allergens as previously described (Singh, et al., (1991) Proc. Nat'l Acad. Sci. USA, […]; Example 2) except recombinant proteins were derived from lambda-gt11 culture rather than pGEX cultures.
as §6
Conditions for electrophoresis and Western blotting and for the processing of Western blots with MAbs and IgE were as described by Singh, et al., (1985) Int. Arch. Allergy Appl. Immun., 78:300.

[7] = system: human IgE of individual sera; assay: Peptide dot blot immunoassay: human IgE; format: binding; settings: for IgE Binding (symbol): sera diluted 1:4
Protocol: as §1, §2, §3, §4

[8] = system: specific IgE from pooled human allergic sera; assay: Immunological screening of clone 19R with sera; format: binding; settings: plaque purified clone
From the text: Duplicate filters of the cDNA expression library in Example 1 were screened with specific IgE from pooled human allergic sera. The bound IgE was detected using ^125 I-labelled anti-human IgE (Kallestad Laboratories,Chaska, Minn.). The plaques that were antibody-positive on both of the duplicate filters were picked off, purified, and then replated and tested for binding to MAbs.

[9] = system: IgE antibodies of individual serum from 30 grass allergic patients; assay: Dot blot screening of recombinant allergens with 30 individual allergic sera; format: binding, human
Protocol: Two microliters of phage stocks of clones 12R, 13R and 19R and a non-recombinant lambda gt 11 were spotted onto a lawn of E. coli Y1090 induced with a nitrocellulose filter saturated with 10 mM IPTG. The protein blots were then probed with individual serum from 30 grass allergic patients. a=Lol p Ib.1, b=Lol p Ia, c=Lol p Ib.2 and d=non-recombinant lambda gt 11. [<]=individuals having higher level of IgE bound to Lol p Ib.2 than Lol p Ia and Lol p Ib.1. [1]=individuals having IgE specific to Lol p Ia. [2]=individuals having IgE specific to Lol p Ib.1 and Lol p Ib.2.
The relative allergenicity of Lol p Ia, Lol p Ib.1 and Lol p Ib.2 were tested using 30 individual allergic sera.

| Molecule | Mouse/rabbit IgG-reactivity (in words) [1] | Binding of MAb 12.3 [2] | Binding of MAb 40.1 [3] | Binding of IgE from sera of allergic indivs. [4] | pI [5] | IgE binding [6] | IgE Binding (symbol) [7] | further results |
| --- | --- | --- | --- | --- | --- | --- | --- | --- |
| EVKYAVFEAALT [Peptide 28] | highest mouse/rabbit IgG-reactivity |  |  |  |  |  |  |  |
| TAYDVAYKAAEG [Peptide 12] |  | ++ | ++ | ++ | 8.0 | AP12R,AP19R and TIgE |  |  |
| FSESSKGLLATS [Peptide 9] |  | - | - | - | 7.2 | AP12R,AP19R and TIgE |  |  |
| ESAFNKALNECT [Peptide 23] | highest mouse/rabbit IgG-reactivity |  |  |  |  |  | + (Densitometric values greater than two were considered as positive binding) | Human IgE-reactivity (in words) [7]: highest human IgE-reactivity |
| KFKIFEAAFSES [Peptide 8] |  | - | - | - | 6.45 | AP12R,AP19R and TIgE |  |  |
| ADAGYTPAAAAT [Peptide 1] | highest mouse/rabbit IgG-reactivity | - | - | - | 5.5 | AP13R TIgE |  |  |
| LATSAAKAPGLI [Peptide 10] |  | - | - | - | 8.3 | AP12R,AP19R and TIgE | + (Densitometric values greater than two were considered as positive binding) |  |
| ALTEGLRVIAGA [Peptide 15] |  | - | - | - | 9 | TIgE |  |  |
| GELQIVDKIDAA [Peptide 19] | highest mouse/rabbit IgG-reactivity |  |  |  |  |  | + (Densitometric values greater than two were considered as positive binding) | Human IgE-reactivity (in words) [7]: highest human IgE-reactivity |
| AKYDAFVTALTE [Peptide 14] |  | ++ | ++ | ++ | 7.3 | TIgE |  |  |
| AANAPPADKFKI [Peptide 7] | highest mouse/rabbit IgG-reactivity |  | ++ | - | 6 | AP12R,AP19R and TIgE | + (Densitometric values greater than two were considered as positive binding) | Human IgE-reactivity (in words) [7]: highest human IgE-reactivity |
| NECTGGAYETYK [Peptide 24] | highest mouse/rabbit IgG-reactivity |  |  |  |  |  | + (Densitometric values greater than two were considered as positive binding) |  |
| B1 |  |  |  |  |  |  |  | Reaction with non-allergic sera [8]: not positive; Binding of specific IgE in sera of ryegrass sensitive patients ([8]; pooled allergic sera): bind specific IgE |
| B2 |  |  |  |  |  |  |  | Patients with IgE antibodies reactive to the recombinant allergen [9]: 80% |
| B3 |  |  |  |  |  |  |  | Affinity of MAb 12.3 (footnote of Table 1, in words) [2]: high affinity; Patients with IgE antibodies reactive to the recombinant allergen [9]: 80% |

From patent US6277383A, “Ryegrass pollen allergen” (University of Melbourne, priority 1995, dated 2001)
